Bridge positions count the residues as written; N and C are the ends. Square brackets hold non-standard residues; d marks the D form. Peptide text beside a SMILES is read from it. * marks the point of attachment. ξ: configuration not given here. Phe(4-COOH) = N[C@@H](Cc1ccc(C(=O)O)cc1)C(=O)O; Bip = N[C@@H](Cc1ccc(-c2ccccc2)cc1)C(=O)O; Phe(4-CN) = N#Cc1ccc(C[C@H](N)C(=O)O)cc1; Phe(3-Me) = Cc1cccc(C[C@H](N)C(=O)O)c1; Phe(4-F) = N[C@@H](Cc1ccc(F)cc1)C(=O)O; Val(3-OH) = CC(C)(O)[C@H](N)C(=O)O; 4Pal = N[C@@H](Cc1ccncc1)C(=O)O; Cha = N[C@@H](CC1CCCCC1)C(=O)O; Thr(3ξ) = CC(O)[C@H](N)C(=O)O; dDab = NCC[C@@H](N)C(=O)O; Carboxymethyl = O=C(O)C*; Orn = NCCC[C@H](N)C(=O)O; Aun = NCCCCCCCCCCC(=O)O; Dab = NCC[C@H](N)C(=O)O; AEEA = NCCOCCOCC(=O)O
Molecular target: T1, PD-1/PD-L1 interaction (PE-labeled human PD-L1-Ig binding to Jurkat cell line over-expressing human PD-1) (Homo sapiens, UniProt Q15116)
T1 construct: expressed in transfected cells; host or cells: Jurkat
T1 sequence (Q15116 25-288): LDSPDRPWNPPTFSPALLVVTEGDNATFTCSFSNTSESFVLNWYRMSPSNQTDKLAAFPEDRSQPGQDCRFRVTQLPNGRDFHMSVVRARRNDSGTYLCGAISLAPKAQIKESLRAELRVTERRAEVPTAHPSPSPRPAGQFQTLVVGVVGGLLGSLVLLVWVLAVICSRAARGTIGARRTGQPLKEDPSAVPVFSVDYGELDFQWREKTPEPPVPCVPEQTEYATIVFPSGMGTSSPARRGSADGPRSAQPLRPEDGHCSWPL
Assay: Jurkat-PD-1 Cell Binding High-Content Screening Assay (CBA)
Assay type: cell-based
Conditions: Jurkat cell line over-expressing human PD-1; PE-labeled PD-L1-Ig 20 nM final; read-out: Jurkat hPD1-PDL1 IC50
In short: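 Binding of fluorescent PD-L1-Ig (20 nM final) to Jurkat-PD-1 cells was measured by automated imaging after 1 h, following a 2 h compound pre-treatment at 37° C.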

Row | Compound | IC50
1 | Cc1cccc(C[C@@H]2NC(=O)[C@H](CC(=O)O)NC(=O)[C@H](Cc3ccc(C(=O)O)cc3)NC(=O)[C@H](Cc3ccncc3)NC(=O)CSC[C@@H](C(=O)N[C@@H](CCN)C(=O)NCCOCCOCC(=O)NCCOCCOCC(=O)NCCCCCCCCCCC(=O)O)NC(=O)[C@H](CCC(=O)O)NC(=O)[C@H](C(C)(C)O)NC(=O)[C@H](CC3CCCCC3)NC(=O)[C@H](CCN)NC(=O)[C@@H](CC(C)C)NC(=O)[C@H](CCCN)NC(=O)[C@H](Cc3ccc(C(=O)O)cc3)NC(=O)[C@H](Cc3ccc(-c4ccccc4)cc3)NC(=O)[C@H](Cc3ccc(C(=O)O)cc3)NC2=O)c1 [Compound 3764] ({CH2CO}-[4Pal][Phe(4-COOH)]D[Phe(3-Me)][Phe(4-COOH)][Bip][Phe(4-COOH)][Orn][dL][Dab][Cha][Val(3-OH)]EC[Dab][AEEA][AEEA][Aun]-OH; thioether N-14) | 238 nM
2 | Cc1cccc(C[C@@H]2NC(=O)[C@H](CC(=O)O)NC(=O)[C@H](Cc3ccc(C(=O)O)cc3)NC(=O)[C@H](Cc3ccncc3)NC(=O)CSC[C@@H](C(=O)N[C@@H](CCN)C(=O)NCCOCCOCC(=O)NCCOCCOCC(=O)NCCCCCCCCCCC(=O)O)NC(=O)[C@H](CCC(=O)O)NC(=O)[C@H](C(C)C)NC(=O)[C@H](CC3CCCCC3)NC(=O)[C@H](CCN)NC(=O)[C@@H](CC(C)C)NC(=O)[C@H](CCCN)NC(=O)[C@H](Cc3ccc(C(=O)O)cc3)NC(=O)[C@H](Cc3ccc(-c4ccccc4)cc3)NC(=O)[C@H](Cc3ccc(C(=O)O)cc3)NC2=O)c1 [Compound 3765] ({CH2CO}-[4Pal][Phe(4-COOH)]D[Phe(3-Me)][Phe(4-COOH)][Bip][Phe(4-COOH)][Orn][dL][Dab][Cha]VEC[Dab][AEEA][AEEA][Aun]-OH; thioether N-14) | 344 nM
3 | Cc1cccc(C[C@@H]2NC(=O)[C@H](CC(=O)O)NC(=O)[C@H](Cc3ccc(OCC(=O)O)cc3)NC(=O)[C@H](Cc3ccncc3)NC(=O)CSC[C@@H](C(=O)N[C@@H](CCN)C(=O)NCCOCCOCC(=O)NCCOCCOCC(=O)NCCCCCCCCCCC(=O)O)NC(=O)[C@H](Cc3cnc[nH]3)NC(=O)[C@H](C(C)C)NC(=O)[C@H](CC3CCCCC3)NC(=O)[C@H](CCN)NC(=O)[C@@H](CC(C)C)NC(=O)[C@H](CCCN)NC(=O)[C@H](Cc3ccc(C(=O)O)cc3)NC(=O)[C@H](Cc3ccc(-c4ccccc4)cc3)NC(=O)[C@H](Cc3ccc(C(=O)O)cc3)NC2=O)c1 [Compound 3766] ({CH2CO}-[4Pal]Y(Carboxymethyl)D[Phe(3-Me)][Phe(4-COOH)][Bip][Phe(4-COOH)][Orn][dL][Dab][Cha]VHC[Dab][AEEA][AEEA][Aun]-OH; thioether N-14) | 31.2 nM
4 | Cc1cccc(C[C@@H]2NC(=O)[C@H](CC(=O)O)NC(=O)[C@H](Cc3ccc(OCC(=O)O)cc3)NC(=O)[C@H](Cc3ccc(F)cc3)NC(=O)CSC[C@@H](C(=O)N[C@@H](CCN)C(=O)NCCOCCOCC(=O)NCCOCCOCC(=O)NCCCCCCCCCCC(=O)O)NC(=O)[C@H](Cc3cnc[nH]3)NC(=O)[C@H](C(C)(C)O)NC(=O)[C@H](CC3CCCCC3)NC(=O)[C@H](CCN)NC(=O)[C@@H](CC(C)C)NC(=O)[C@H](CCCN)NC(=O)[C@H](Cc3ccc(C(=O)O)cc3)NC(=O)[C@H](Cc3ccc(-c4ccccc4)cc3)NC(=O)[C@H](Cc3ccc(C(=O)O)cc3)NC2=O)c1 [Compound 3767] ({CH2CO}-[Phe(4-F)]Y(Carboxymethyl)D[Phe(3-Me)][Phe(4-COOH)][Bip][Phe(4-COOH)][Orn][dL][Dab][Cha][Val(3-OH)]HC[Dab][AEEA][AEEA][Aun]-OH; thioether N-14) | 9.6 nM
5 | Cc1cccc(C[C@@H]2NC(=O)[C@H](CC(=O)O)NC(=O)[C@H](Cc3ccc(OCC(=O)O)cc3)NC(=O)[C@H](Cc3ccc(F)cc3)NC(=O)CSC[C@@H](C(=O)N[C@@H](CCN)C(=O)NCCOCCOCC(=O)NCCOCCOCC(=O)NCCCCCCCCCCC(=O)O)NC(=O)[C@H](CCC(=O)O)NC(=O)[C@H](C(C)(C)O)NC(=O)[C@H](CC3CCCCC3)NC(=O)[C@H](CCN)NC(=O)[C@@H](CC(C)C)NC(=O)[C@H](CCCN)NC(=O)[C@H](Cc3ccc(C(=O)O)cc3)NC(=O)[C@H](Cc3ccc(-c4ccccc4)cc3)NC(=O)[C@H](Cc3ccc(C(=O)O)cc3)NC2=O)c1 [Compound 3768] ({CH2CO}-[Phe(4-F)]Y(Carboxymethyl)D[Phe(3-Me)][Phe(4-COOH)][Bip][Phe(4-COOH)][Orn][dL][Dab][Cha][Val(3-OH)]EC[Dab][AEEA][AEEA][Aun]-OH; thioether N-14) | 6.5 nM
6 | Cc1cccc(C[C@@H]2NC(=O)[C@H](CC(=O)O)NC(=O)[C@H](Cc3ccc(OCC(=O)O)cc3)NC(=O)[C@@H](CCN)NC(=O)CSC[C@@H](C(=O)N[C@@H](CCN)C(=O)NCCCCCCCCCCC(=O)O)NC(=O)[C@H](Cc3cnc[nH]3)NC(=O)[C@H](C(C)(C)O)NC(=O)[C@H](CC3CCCCC3)NC(=O)[C@H](CCN)NC(=O)[C@@H](CC(C)C)NC(=O)[C@H](CCCN)NC(=O)[C@H](Cc3ccc(C(=O)O)cc3)NC(=O)[C@H](Cc3ccc(-c4ccccc4)cc3)NC(=O)[C@H](Cc3ccc(C(=O)O)cc3)NC2=O)c1 [Compound 3770] ({CH2CO}-[dDab]Y(Carboxymethyl)D[Phe(3-Me)][Phe(4-COOH)][Bip][Phe(4-COOH)][Orn][dL][Dab][Cha][Val(3-OH)]HC[Dab][Aun]-OH; thioether N-14) | 239 nM

Stronger by IC50, values ahead:

Row | IC50 | Compound
7 | 3.5 nM | Cc1cccc(C[C@@H]2NC(=O)[C@H](CC(=O)O)NC(=O)[C@H](Cc3ccc(OCC(=O)O)cc3)NC(=O)[C@H](C)NC(=O)CSC[C@@H](C(=O)N[C@@H](CCN)C(=O)NCCOCCOCC(=O)NCCCCCCCCCCC(=O)O)NC(=O)[C@H](CO)NC(=O)[C@H](C(C)(C)O)NC(=O)[C@H](CC3CCCCC3)NC(=O)[C@H](CCN)NC(=O)[C@@H](CC(C)C)NC(=O)[C@H](CCCN)NC(=O)[C@H](Cc3ccc(C(=O)O)cc3)NC(=O)[C@H](Cc3ccc(-c4ccccc4)cc3)NC(=O)[C@H](Cc3ccc(C(=O)O)cc3)NC2=O)c1 [Compound 3769] ({CH2CO}-AY(Carboxymethyl)D[Phe(3-Me)][Phe(4-COOH)][Bip][Phe(4-COOH)][Orn][dL][Dab][Cha][Val(3-OH)]SC[Dab][AEEA][Aun]-OH; thioether N-14)
8 | 4.7 nM | Cc1cccc(C[C@@H]2NC(=O)[C@H](CC(=O)O)NC(=O)[C@H](Cc3ccc(OCC(=O)O)cc3)NC(=O)[C@H](CCN)NC(=O)CSC[C@@H](C(=O)N[C@@H](CCN)C(=O)NCCOCCOCC(=O)NCCOCCOCC(=O)NCCOCCOCC(=O)NCCCCCCCCCCC(=O)O)NC(=O)[C@H](CCC(=O)O)NC(=O)[C@H](C(C)(C)O)NC(=O)[C@H](CC3CCCCC3)NC(=O)[C@H](CCN)NC(=O)[C@@H](CC(C)C)NC(=O)[C@H](CCCN)NC(=O)[C@H](Cc3ccc(OCC(=O)O)cc3)NC(=O)[C@H](Cc3ccc(-c4ccccc4)cc3)NC(=O)[C@H](Cc3ccc(OCC(=O)O)cc3)NC2=O)c1 [Compound 3771] ({CH2CO}-[Dab]Y(Carboxymethyl)D[Phe(3-Me)]Y(Carboxymethyl)[Bip]Y(Carboxymethyl)[Orn][dL][Dab][Cha][Val(3-OH)]EC[Dab][AEEA][AEEA][AEEA][Aun]-OH; thioether N-14)
9 | 2.6 nM | Cc1cccc(C[C@@H]2NC(=O)[C@H](CC(=O)O)NC(=O)[C@H](Cc3ccc(OCC(=O)O)cc3)NC(=O)[C@H](CCN)NC(=O)CSC[C@@H](C(=O)N[C@@H](CCN)C(=O)NCCOCCOCC(=O)NCCOCCOCC(=O)NCCOCCOCC(=O)NCCCCCCCCCCC(=O)O)NC(=O)[C@H](Cc3cnc[nH]3)NC(=O)[C@H](C(C)(C)O)NC(=O)[C@H](CC3CCCCC3)NC(=O)[C@H](CCN)NC(=O)[C@@H](CC(C)C)NC(=O)[C@H](CCCN)NC(=O)[C@H](Cc3ccc(C(=O)O)cc3)NC(=O)[C@H](Cc3ccc(-c4ccccc4)cc3)NC(=O)[C@H](Cc3ccc(C(=O)O)cc3)NC2=O)c1 [Compound 3772] ({CH2CO}-[Dab]Y(Carboxymethyl)D[Phe(3-Me)][Phe(4-COOH)][Bip][Phe(4-COOH)][Orn][dL][Dab][Cha][Val(3-OH)]HC[Dab][AEEA][AEEA][AEEA][Aun]-OH; thioether N-14)
10 | 1 nM | Cc1cccc(C[C@@H]2NC(=O)[C@H](CC(=O)O)NC(=O)[C@H](Cc3ccc(C#N)cc3)NC(=O)[C@H](C(C)O)NC(=O)CSC[C@@H](C(=O)N[C@@H](CCN)C(=O)NCCOCCOCC(=O)NCCOCCOCC(=O)NCCCCCCCCCCC(=O)O)NC(=O)[C@H](Cc3cnc[nH]3)NC(=O)[C@H](C(C)(C)O)NC(=O)[C@H](CC3CCCCC3)NC(=O)[C@H](CCN)NC(=O)[C@@H](CC(C)C)NC(=O)[C@H](CCCN)NC(=O)[C@H](Cc3ccc(OCC(=O)O)cc3)NC(=O)[C@H](Cc3ccc(-c4ccccc4)cc3)NC(=O)[C@H](Cc3ccc(OCC(=O)O)cc3)NC2=O)c1 (stereo partly drawn) [Compound 3773] ({CH2CO}-[Thr(3ξ)][Phe(4-CN)]D[Phe(3-Me)]Y(Carboxymethyl)[Bip]Y(Carboxymethyl)[Orn][dL][Dab][Cha][Val(3-OH)]HC[Dab][AEEA][AEEA][Aun]-OH; thioether N-14)
11 | 6.3 nM | Cc1cccc(C[C@@H]2NC(=O)[C@H](CC(=O)O)NC(=O)[C@H](Cc3ccc(C#N)cc3)NC(=O)[C@H](C(C)O)NC(=O)CSC[C@@H](C(=O)N[C@@H](CCN)C(=O)NCCOCCOCC(=O)NCCOCCOCC(=O)NCCCCCCCCCCC(=O)O)NC(=O)[C@H](Cc3cnc[nH]3)NC(=O)[C@H](C(C)O)NC(=O)[C@H](CC3CCCCC3)NC(=O)[C@H](CCN)NC(=O)[C@@H](CC(C)C)NC(=O)[C@H](CCCN)NC(=O)[C@H](Cc3ccc(OCC(=O)O)cc3)NC(=O)[C@H](Cc3ccc(-c4ccccc4)cc3)NC(=O)[C@H](Cc3ccc(OCC(=O)O)cc3)NC2=O)c1 (stereo partly drawn) [Compound 3774] ({CH2CO}-[Thr(3ξ)][Phe(4-CN)]D[Phe(3-Me)]Y(Carboxymethyl)[Bip]Y(Carboxymethyl)[Orn][dL][Dab][Cha][Thr(3ξ)]HC[Dab][AEEA][AEEA][Aun]-OH; thioether N-14)
